Drawing on PubChem BioAssay AID1963845 (Molecular Pharmacology Branch, DTP, NCI, 2024), this text covers IC50 and viability, T/C for five compounds.

Where only a bound is given, the exact number is not on record here.
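Further: luminescence signal used as surrogate measure of viable cells; spheroids exposed to compounds for seven days before readout.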
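Wherever viability, T/C is given: 100% = DMSO vehicle control viability as luminescence relative to vehicle.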

The test system of one experiment is 429239-143-T-J1-PDC complex spheroid viability. Description: Anticancer human tumor 429239-143-T-J1-PDC patient-derived small cell lung carcinoma cell line growth inhibition [POLQ]. The note with it: curve of first compound; second compound 10 µM. In outline: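 Patient-derived tumour cells were co-cultured with HUVEC and mesenchymal stem cells as multicellular spheroids at 37 °C. They were treated with POLQ inhibitors (novobiocin, ART-558, RP6685) alone or combined with other agents. Top concentrations were at or near clinical Cmax (otherwise 10 microM; SN-38 at 1 microM), decreasing in half-log steps.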
On to `CC1COCCN1c1cc(C2(O)CC3CCC(C2)O3)c2cnn(-c3ccn[nH]3)c2n1` (stereo unspecified) + Nc1ccc(C#CCN(C(=O)Cc2ncc(C(F)(F)F)cc2C(F)(F)F)c2ccc(F)cc2)nn1, for which the IC50 turned out to be 0.187 µM.

For the compound `CCc1cc2c(N3CCc4c(cc(Cn5ccnc5)cc4-c4cn(C)nc4C(F)(F)F)C3=O)cc(C)nc2c(OC)n1` + Nc1ccc(C#CCN(C(=O)Cc2ncc(C(F)(F)F)cc2C(F)(F)F)c2ccc(F)cc2)nn1, the IC50 is 4.85 µM.

`COc1cc2cc(C(=O)CCC(=O)O)sc2cc1OC` + Nc1ccc(C#CCN(C(=O)Cc2ncc(C(F)(F)F)cc2C(F)(F)F)c2ccc(F)cc2)nn1: the IC50 is greater than 10 µM.

Consider `O=C(Nc1ccc(O)c(NS(=O)(=O)c2ccc(F)cc2)c1)c1ccc(-c2ccccc2)cc1` + Nc1ccc(C#CCN(C(=O)Cc2ncc(C(F)(F)F)cc2C(F)(F)F)c2ccc(F)cc2)nn1, for which the IC50 is greater than 10 µM.

Staying with this experiment, now noted: second compound 0.0316 µM; first compound 0.0316 µM; stronger effect = lower value.
`C#Cc1c(F)ccc2cc(O)cc(-c3ncc4c(N5CC6CCC(C5)N6)nc(OCC56CCCN5CC(F)C6)nc4c3F)c12` (stereo unspecified) + Nc1ccc(C#CCN(C(=O)Cc2ncc(C(F)(F)F)cc2C(F)(F)F)c2ccc(F)cc2)nn1: the viability, T/C was 98.6%.

Regarding `CC1COCCN1c1cc(C2(O)CC3CCC(C2)O3)c2cnn(-c3ccn[nH]3)c2n1` (stereo unspecified) + Nc1ccc(C#CCN(C(=O)Cc2ncc(C(F)(F)F)cc2C(F)(F)F)c2ccc(F)cc2)nn1, the viability, T/C was 84.1%.

Take `CCc1cc2c(N3CCc4c(cc(Cn5ccnc5)cc4-c4cn(C)nc4C(F)(F)F)C3=O)cc(C)nc2c(OC)n1` + Nc1ccc(C#CCN(C(=O)Cc2ncc(C(F)(F)F)cc2C(F)(F)F)c2ccc(F)cc2)nn1: the viability, T/C is 104%.

With `COc1cc2cc(C(=O)CCC(=O)O)sc2cc1OC` + Nc1ccc(C#CCN(C(=O)Cc2ncc(C(F)(F)F)cc2C(F)(F)F)c2ccc(F)cc2)nn1, the viability, T/C is 90.4%.

Regarding `O=C(Nc1ccc(O)c(NS(=O)(=O)c2ccc(F)cc2)c1)c1ccc(-c2ccccc2)cc1` + Nc1ccc(C#CCN(C(=O)Cc2ncc(C(F)(F)F)cc2C(F)(F)F)c2ccc(F)cc2)nn1, the viability, T/C is 102%.

Still in this experiment, the particulars now being: second compound 0.0316 µM; first compound 0.1 µM; stronger effect = lower value.
`C#Cc1c(F)ccc2cc(O)cc(-c3ncc4c(N5CC6CCC(C5)N6)nc(OCC56CCCN5CC(F)C6)nc4c3F)c12` (stereo unspecified) + Nc1ccc(C#CCN(C(=O)Cc2ncc(C(F)(F)F)cc2C(F)(F)F)c2ccc(F)cc2)nn1: the viability, T/C was 106%.

Turning to `CC1COCCN1c1cc(C2(O)CC3CCC(C2)O3)c2cnn(-c3ccn[nH]3)c2n1` (stereo unspecified) + Nc1ccc(C#CCN(C(=O)Cc2ncc(C(F)(F)F)cc2C(F)(F)F)c2ccc(F)cc2)nn1, the viability, T/C was 72%.

Turning to `CCc1cc2c(N3CCc4c(cc(Cn5ccnc5)cc4-c4cn(C)nc4C(F)(F)F)C3=O)cc(C)nc2c(OC)n1` + Nc1ccc(C#CCN(C(=O)Cc2ncc(C(F)(F)F)cc2C(F)(F)F)c2ccc(F)cc2)nn1, the viability, T/C is 94.1%.

Turning to `COc1cc2cc(C(=O)CCC(=O)O)sc2cc1OC` + Nc1ccc(C#CCN(C(=O)Cc2ncc(C(F)(F)F)cc2C(F)(F)F)c2ccc(F)cc2)nn1, the viability, T/C was 108%.

As for `O=C(Nc1ccc(O)c(NS(=O)(=O)c2ccc(F)cc2)c1)c1ccc(-c2ccccc2)cc1` + Nc1ccc(C#CCN(C(=O)Cc2ncc(C(F)(F)F)cc2C(F)(F)F)c2ccc(F)cc2)nn1, the viability, T/C is 106%.

Still in this experiment, the particulars now being: second compound 0.0316 µM; first compound 0.316 µM; stronger effect = lower value.
For the compound `C#Cc1c(F)ccc2cc(O)cc(-c3ncc4c(N5CC6CCC(C5)N6)nc(OCC56CCCN5CC(F)C6)nc4c3F)c12` (stereo unspecified) + Nc1ccc(C#CCN(C(=O)Cc2ncc(C(F)(F)F)cc2C(F)(F)F)c2ccc(F)cc2)nn1, the viability, T/C is 103%.

For `CC1COCCN1c1cc(C2(O)CC3CCC(C2)O3)c2cnn(-c3ccn[nH]3)c2n1` (stereo unspecified) + Nc1ccc(C#CCN(C(=O)Cc2ncc(C(F)(F)F)cc2C(F)(F)F)c2ccc(F)cc2)nn1, the viability, T/C is 48.2%.

Take `CCc1cc2c(N3CCc4c(cc(Cn5ccnc5)cc4-c4cn(C)nc4C(F)(F)F)C3=O)cc(C)nc2c(OC)n1` + Nc1ccc(C#CCN(C(=O)Cc2ncc(C(F)(F)F)cc2C(F)(F)F)c2ccc(F)cc2)nn1: the viability, T/C is 91.3%.

In the case of `COc1cc2cc(C(=O)CCC(=O)O)sc2cc1OC` + Nc1ccc(C#CCN(C(=O)Cc2ncc(C(F)(F)F)cc2C(F)(F)F)c2ccc(F)cc2)nn1, the viability, T/C is 89.8%.

Turning to `O=C(Nc1ccc(O)c(NS(=O)(=O)c2ccc(F)cc2)c1)c1ccc(-c2ccccc2)cc1` + Nc1ccc(C#CCN(C(=O)Cc2ncc(C(F)(F)F)cc2C(F)(F)F)c2ccc(F)cc2)nn1, the viability, T/C is 89.5%.

Staying with this experiment, now noted: second compound 0.0316 µM; first compound 1 µM; stronger effect = lower value.
Regarding `C#Cc1c(F)ccc2cc(O)cc(-c3ncc4c(N5CC6CCC(C5)N6)nc(OCC56CCCN5CC(F)C6)nc4c3F)c12` (stereo unspecified) + Nc1ccc(C#CCN(C(=O)Cc2ncc(C(F)(F)F)cc2C(F)(F)F)c2ccc(F)cc2)nn1, the viability, T/C is 109%.

For the compound `CC1COCCN1c1cc(C2(O)CC3CCC(C2)O3)c2cnn(-c3ccn[nH]3)c2n1` (stereo unspecified) + Nc1ccc(C#CCN(C(=O)Cc2ncc(C(F)(F)F)cc2C(F)(F)F)c2ccc(F)cc2)nn1, the viability, T/C was 7.65%.

Turning to `CCc1cc2c(N3CCc4c(cc(Cn5ccnc5)cc4-c4cn(C)nc4C(F)(F)F)C3=O)cc(C)nc2c(OC)n1` + Nc1ccc(C#CCN(C(=O)Cc2ncc(C(F)(F)F)cc2C(F)(F)F)c2ccc(F)cc2)nn1, the viability, T/C is 77.4%.

On to `COc1cc2cc(C(=O)CCC(=O)O)sc2cc1OC` + Nc1ccc(C#CCN(C(=O)Cc2ncc(C(F)(F)F)cc2C(F)(F)F)c2ccc(F)cc2)nn1, for which the viability, T/C was 107%.

As to `O=C(Nc1ccc(O)c(NS(=O)(=O)c2ccc(F)cc2)c1)c1ccc(-c2ccccc2)cc1` + Nc1ccc(C#CCN(C(=O)Cc2ncc(C(F)(F)F)cc2C(F)(F)F)c2ccc(F)cc2)nn1, the viability, T/C is 105%.

The same experiment, now with this note: second compound 0.0316 µM; first compound 3.16 µM; stronger effect = lower value.
Consider `C#Cc1c(F)ccc2cc(O)cc(-c3ncc4c(N5CC6CCC(C5)N6)nc(OCC56CCCN5CC(F)C6)nc4c3F)c12` (stereo unspecified) + Nc1ccc(C#CCN(C(=O)Cc2ncc(C(F)(F)F)cc2C(F)(F)F)c2ccc(F)cc2)nn1, for which the viability, T/C is 102%.

Regarding `CC1COCCN1c1cc(C2(O)CC3CCC(C2)O3)c2cnn(-c3ccn[nH]3)c2n1` (stereo unspecified) + Nc1ccc(C#CCN(C(=O)Cc2ncc(C(F)(F)F)cc2C(F)(F)F)c2ccc(F)cc2)nn1, the viability, T/C is 3.72%.

The IC50 is the concentration needed to halve the response being measured. As a reminder, the viability, T/C is the ratio of treated to control.
